For test [1], the system named is L1210. As to the kind of experiment: Cytotoxicity against mouse L1210 cells. Type of test: functional, cell-based.
Test [2] has as its system KB. As to the kind of experiment: Cytotoxicity against human KB cells. Type of test: functional, cell-based.
The subject of test [3] is HeLa. Nature of the test: Cytotoxicity against human HeLa cells. Type of test: functional, cell-based.
The target in test [4] is T1, Adenosine receptor A1 (Homo sapiens) (UniProt P30542).
T1 sequence (whole entry): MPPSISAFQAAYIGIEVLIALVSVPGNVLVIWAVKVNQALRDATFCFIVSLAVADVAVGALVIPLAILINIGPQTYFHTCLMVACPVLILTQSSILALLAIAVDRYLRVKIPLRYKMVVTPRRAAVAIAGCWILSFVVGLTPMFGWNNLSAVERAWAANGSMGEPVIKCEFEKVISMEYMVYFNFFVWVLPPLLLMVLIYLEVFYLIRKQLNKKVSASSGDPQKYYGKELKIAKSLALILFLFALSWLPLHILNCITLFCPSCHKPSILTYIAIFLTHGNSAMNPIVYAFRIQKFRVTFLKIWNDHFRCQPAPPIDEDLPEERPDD
As to the kind of experiment: Displacement of [3H]DPCPX from adenosine A1 receptor in human HeLa cells at 100 uM by whole cell binding assay. It counts as cell-based.

Test [5] deals with U-937. As to the kind of experiment: Antiproliferative activity against human U937 cells by MTT assay. It counts as functional, cell-based.
Test [6] concerns Jurkat. Nature of the test: Antiproliferative activity against human Jurkat cells by MTT assay. It counts as functional, cell-based.
Test [7] deals with U-937. Nature of the test: Induction of apoptosis in human U937 cells after 24 to 48 hrs by annexin V/propidium iodide staining based flow cytometry. Type of test: functional.
Test [8] has as its system P388. As to the kind of experiment: Cytotoxicity against mouse P388 cells. It counts as functional, cell-based.

≈ marks a conversion by molar mass, not a printed value.

Turning to `COC1=C(Br)[C@H](O)[C@@]2(C=C1Br)CC(C(=O)NCCc1c(Br)cc(OCCCN(C)C)cc1Br)=NO2` [PUREALIDIN Q], the figures for the IC50 in test [1] and in test [2] were 0.95 µg/mL (≈ 1.27 µM) and 1.2 µg/mL (≈ 1.61 µM), respectively.

In test [3], `COC1=C(Br)[C@H](O)[C@@]2(C=C1Br)CC(C(=O)NCCCOc1c(Br)cc(CCNS(=O)(=O)O)cc1Br)=NO2` gave an EC50 of 60 µM. Besides, the inhibition in test [4] was found to be 61%.

Turning to `COC1=C(Br)[C@H](O)[C@@]2(C=C1Br)CC(C(=O)NCCCOc1c(Br)cc(C(O)CNC(=O)C3=NO[C@]4(C=C(Br)C(OC)=C(Br)[C@@H]4O)C3)cc1Br)=NO2` (stereo not given in full), the 50% inhibitory concentration (IC50) in test [5] and in test [6] was 8.1 µM in each case. For the same compound, the Activity in test [7] is recorded as 35%.

Compound `COC1=C(Br)C[C@]2(OC=C1Br)ON=C(C(=O)NCCCOc1c(Br)cc(CCNC=C3C(=O)C=CC3=O)cc1Br)[C@@H]2O` (relative stereo) gave an IC50 in test [8] of 2.1 µg/mL (≈ 2.5 µM).

On to `COC1=C(Br)[C@H](O)[C@@]2(C=C1Br)CC(C(=O)NCCCOc1c(Br)cc(CCN(C)C)cc1Br)=NO2`, for which the results for the IC50 in test [1] and in test [2] were 2.8 µg/mL (≈ 3.76 µM) and 7.6 µg/mL (≈ 10.2 µM), respectively.

For `COC1=C(Br)[C@H](O)[C@@]2(C=C1Br)CC(C(=O)NCCCCNC(=O)C1=NO[C@]3(C=C(Br)C(OC)=C(Br)[C@@H]3O)C1)=NO2` [AEROTHIONIN], the EC50 in test [3] came to 42 µM.

Take `COC1=C(Br)[C@H](O)[C@@]2(C=C1Br)CC(C(=O)NCC(O)COc1c(Br)cc(C(O)CNC(=O)C3=NO[C@]4(C=C(Br)C(OC)=C(Br)[C@@H]4O)C3)cc1Br)=NO2` (stereo not given in full): the concentration for half-maximal inhibition (IC50) in test [5] and in test [6] was 7.39 µM throughout. In test [7], this compound returned an Activity of 35%.

The compound `COC1=C(Br)[C@H](O)[C@@]2(C=C1Br)CC(C(=O)NCCCOc1c(Br)cc(CCNC(=O)C3=NO[C@]4(C=C(Br)C(OC)=C(Br)[C@@H]4O)C3)cc1Br)=NO2` came in with an EC50 in test [3] of 2.6 µM.

Source of the values: ChEMBL document CHEMBL3232741, “Isoxazoline containing natural products as anticancer agents: a review” (Eur J Med Chem, 2014).
